Test results from patent publication US20220033397A1, “PHARMACEUTICAL COMPOUNDS AND THEIR USE AS INHIBITORS OF UBIQUITIN SPECIFIC PROTEASE 19 (USP19)” (ALMAC DISCOVERY LIMITED, priority 2018, published 2022).

Each molecule was assayed against T1, Full-length USP19 (Homo sapiens, UniProt O94966) (assay: USP19 fluorescence polarisation (FP) homogeneous assay with Ubiquitin-Lys-TAMRA substrate). Settings: 2.5 nM USP19, 30 min pre-incubation, average of at least two duplicate experiments.
T1 construct: Full-length USP19 was purchased from Boston Biochem (E-576); purchased Boston Biochem E-576
T1 sequence (O94966 1-1318): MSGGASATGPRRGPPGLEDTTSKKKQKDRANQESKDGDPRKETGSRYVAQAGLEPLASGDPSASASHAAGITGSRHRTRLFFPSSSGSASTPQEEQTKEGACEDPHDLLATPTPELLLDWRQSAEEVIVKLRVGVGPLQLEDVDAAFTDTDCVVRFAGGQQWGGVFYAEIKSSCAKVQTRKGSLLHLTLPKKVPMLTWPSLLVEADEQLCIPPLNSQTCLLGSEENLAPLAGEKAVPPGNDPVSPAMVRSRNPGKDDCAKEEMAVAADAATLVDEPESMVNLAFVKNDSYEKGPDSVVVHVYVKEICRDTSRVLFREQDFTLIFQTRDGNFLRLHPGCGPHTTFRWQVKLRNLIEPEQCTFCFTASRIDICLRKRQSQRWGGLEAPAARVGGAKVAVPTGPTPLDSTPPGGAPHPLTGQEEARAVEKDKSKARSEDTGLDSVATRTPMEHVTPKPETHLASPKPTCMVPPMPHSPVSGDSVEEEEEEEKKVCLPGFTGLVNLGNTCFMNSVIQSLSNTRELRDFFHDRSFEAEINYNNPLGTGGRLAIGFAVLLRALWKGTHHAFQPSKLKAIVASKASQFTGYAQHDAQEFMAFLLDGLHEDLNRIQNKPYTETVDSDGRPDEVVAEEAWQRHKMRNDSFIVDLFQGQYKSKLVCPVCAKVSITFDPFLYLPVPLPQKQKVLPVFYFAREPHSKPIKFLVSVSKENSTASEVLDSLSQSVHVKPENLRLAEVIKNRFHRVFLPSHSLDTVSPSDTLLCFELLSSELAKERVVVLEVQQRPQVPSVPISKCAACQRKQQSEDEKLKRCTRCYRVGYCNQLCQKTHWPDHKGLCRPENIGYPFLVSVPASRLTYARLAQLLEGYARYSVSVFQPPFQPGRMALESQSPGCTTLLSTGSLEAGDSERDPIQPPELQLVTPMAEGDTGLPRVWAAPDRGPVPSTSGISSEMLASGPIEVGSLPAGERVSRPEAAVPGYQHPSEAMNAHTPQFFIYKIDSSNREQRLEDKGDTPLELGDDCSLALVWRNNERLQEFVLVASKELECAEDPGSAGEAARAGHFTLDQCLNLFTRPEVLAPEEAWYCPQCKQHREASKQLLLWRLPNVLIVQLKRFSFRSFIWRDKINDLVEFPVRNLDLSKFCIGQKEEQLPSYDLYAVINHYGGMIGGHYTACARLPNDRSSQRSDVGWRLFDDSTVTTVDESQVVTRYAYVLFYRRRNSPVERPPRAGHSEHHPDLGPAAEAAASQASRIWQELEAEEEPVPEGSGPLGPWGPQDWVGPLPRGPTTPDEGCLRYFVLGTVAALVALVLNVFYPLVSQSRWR
Type: biochemical
Summary of the method: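 Full-length USP19 preincubated 30 min at RT with inhibitor (200 μM to 2 μM series, 8–18 points) before adding 500 nM Ubiquitin-Lys-TAMRA substrate.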
`O=C(N1CCC(O)(Cn2cnc(-c3ccccc3)cc2=O)C2(CCCC2)C1)N1CCC12CCOC2` (stereo not shown) [Example 236, 3-((10-Hydroxy-7-(6-oxa-1-azaspiro[3.4]octane-1-carbonyl)-7-azaspiro[4.5]decan-10-yl)methyl)-6-phenylpyrimidin-4(3H)-one] showed an IC50 of 5 to 50 µM.
For `O=C(N1CCC(C2CC2)C1)N1CCC(O)(Cn2cnc(-c3ccccc3)cc2=O)C2(CCCC2)C1` (stereo not shown) [Example 237, 3-((7-(3-Cyclopropylpyrrolidine-1-carbonyl)-10-hydroxy-7-azaspiro[4.5]decan-10-yl)methyl)-6-phenylpyrimidin-4(3H)-one], the IC50 was 5 to 50 µM.
`CN(Cc1ccns1)C(=O)N1CCC(O)(Cn2cnc(-c3ccccc3)cc2=O)C2(CCCC2)C1` (stereo not shown) [Example 238, 10-Hydroxy-N-(isothiazol-5-ylmethyl)-N-methyl-10-((6-oxo-4-phenylpyrimidin-1(6H)-yl)methyl)-7-azaspiro[4.5]decane-7-carboxamide] showed an IC50 of 5 to 50 µM.
For `CN(CC1CC(F)C1)C(=O)N1CCC(O)(Cn2cnc(-c3ccccc3)cc2=O)C2(CCCC2)C1` (stereo not shown) [Example 239, N-((3-Fluorocyclobutyl)methyl)-10-hydroxy-N-methyl-10-((6-oxo-4-phenylpyrimidin-1(6H)-yl)methyl)-7-azaspiro[4.5]decane-7-carboxamide], the IC50 was 5 to 50 µM.
Work on `CC1(C)CCCN1C(=O)N1CCC(O)(Cn2cnc(-c3ccccc3)cc2=O)C2(CCCC2)C1` (stereo not shown) [Example 240, 3-((7-(2,2-Dimethylpyrrolidine-1-carbonyl)-10-hydroxy-7-azaspiro[4.5]decan-10-yl)methyl)-6-phenylpyrimidin-4(3H)-one] yielded an IC50 of 5 to 50 µM.
For `O=C(N1CCC(C(F)F)CC1)N1CCC(O)(Cn2cnc(-c3ccccc3)cc2=O)C2(CCCC2)C1` (stereo not shown) [Example 241, 3-((7-(4-(Difluoromethyl)piperidine-1-carbonyl)-10-hydroxy-7-azaspiro[4.5]decan-10-yl)methyl)-6-phenylpyrimidin-4(3H)-one], the IC50 was 5 to 50 µM.
For `CN(Cc1ccco1)C(=O)N1CCC(O)(Cn2cnc(-c3ccccc3)cc2=O)C2(CCCC2)C1` (stereo not shown) [Example 242, N-(Furan-2-ylmethyl)-10-hydroxy-N-methyl-10-((6-oxo-4-phenylpyrimidin-1(6H)-yl)methyl)-7-azaspiro[4.5]decane-7-carboxamide], the IC50 was 50 to 250 µM.
`O=C(N1CCC(O)(Cn2cnc(-c3ccccc3)cc2=O)C2(CCCC2)C1)N1CCOC2CC21` (stereo not shown) [Example 243, 3-((7-(2-Oxa-5-azabicyclo[4.1.0]heptane-5-carbonyl)-10-hydroxy-7-azaspiro[4.5]decan-10-yl)methyl)-6-phenylpyrimidin-4(3H)-one] gave an IC50 of 5 to 50 µM.
`CN(Cc1cccnc1)C(=O)N1CCC(O)(Cn2cnc(-c3ccccc3)cc2=O)C2(CCCC2)C1` (stereo not shown) [Example 244, 10-Hydroxy-N-methyl-10-((6-oxo-4-phenylpyrimidin-1(6H)-yl)methyl)-N-(pyridin-3-ylmethyl)-7-azaspiro[4.5]decane-7-carboxamide] was tested, and the IC50 was 5 to 50 µM.
Work on `O=C(N1CCC(O)(Cn2cnc(-c3ccccc3)cc2=O)C2(CCCC2)C1)N1CCCC1c1cccnc1` (stereo not shown) [Example 245, 3-((10-Hydroxy-7-(2-(pyridin-3-yl)pyrrolidine-1-carbonyl)-7-azaspiro[4.5]decan-10-yl)methyl)-6-phenylpyrimidin-4(3H)-one] yielded an IC50 of 0.5 to 5 µM.
Work on `O=C(N1CCC(n2cccc2)C1)N1CCC(O)(Cn2cnc(-c3ccccc3)cc2=O)C2(CCCC2)C1` (stereo not shown) [Example 246, 3-((7-(3-(1H-Pyrrol-1-yl)pyrrolidine-1-carbonyl)-10-hydroxy-7-azaspiro[4.5]decan-10-yl)methyl)-6-phenylpyrimidin-4(3H)-one] yielded an IC50 of 5 to 50 µM.
`CC(C1CC1)N(C)C(=O)N1CCC(O)(Cn2cnc(-c3ccccc3)cc2=O)C2(CCCC2)C1` (stereo not shown) [Example 247, N-(1-Cyclopropylethyl)-10-hydroxy-N-methyl-10-((6-oxo-4-phenylpyrimidin-1(6H)-yl)methyl)-7-azaspiro[4.5]decane-7-carboxamide] was tested, and the IC50 was 5 to 50 µM.
`O=C(N1CCC(O)(Cn2cnc(-c3ccccc3)cc2=O)C2(CCCC2)C1)N1CCOCC1C1CC1` (stereo not shown) [Example 248, 3-((7-(3-Cyclopropylmorpholine-4-carbonyl)-10-hydroxy-7-azaspiro[4.5]decan-10-yl)methyl)-6-phenylpyrimidin-4(3H)-one] was tested, and the IC50 was 5 to 50 µM.
`O=C(N1CCC(O)(Cn2cnc(-c3ccccc3)cc2=O)C2(CCCC2)C1)N1CCCC1c1ccncc1` (stereo not shown) [Example 249, 3-((10-Hydroxy-7-(2-(pyridin-4-yl)pyrrolidine-1-carbonyl)-7-azaspiro[4.5]decan-10-yl)methyl)-6-phenylpyrimidin-4(3H)-one] showed an IC50 of 0.5 to 5 µM.
For `O=C(N1CCCC2(CC2)C1)N1CCC(O)(Cn2cnc(-c3ccccc3)cc2=O)C2(CCCC2)C1` (stereo not shown) [Example 250, 3-((10-Hydroxy-7-(5-azaspiro[2.5]octane-5-carbonyl)-7-azaspiro[4.5]decan-10-yl)methyl)-6-phenylpyrimidin-4(3H)-one], the IC50 was 5 to 50 µM.
With `CN(Cc1cccc(C#N)c1)C(=O)N1CCC(O)(Cn2cnc(-c3ccccc3)cc2=O)C2(CCCC2)C1` (stereo not shown) [Example 251, N-(3-Cyanobenzyl)-10-hydroxy-N-methyl-10-((6-oxo-4-phenylpyrimidin-1(6H)-yl)methyl)-7-azaspiro[4.5]decane-7-carboxamide] the IC50 was 0.5 to 5 µM.
Molecule `O=C(N1CC(C2CC2)C1)N1CCC(O)(Cn2cnc(-c3ccccc3)cc2=O)C2(CCCC2)C1` (stereo not shown) [Example 252, 3-((7-(3-Cyclopropylazetidine-1-carbonyl)-10-hydroxy-7-azaspiro[4.5]decan-10-yl)methyl)-6-phenylpyrimidin-4(3H)-one] has an IC50 of 5 to 50 µM.
Work on `O=C(N1CCOC(F)(F)C1)N1CCC(O)(Cn2cnc(-c3ccccc3)cc2=O)C2(CCCC2)C1` (stereo not shown) [Example 253, 3-((7-(2,2-Difluoromorpholine-4-carbonyl)-10-hydroxy-7-azaspiro[4.5]decan-10-yl)methyl)-6-phenylpyrimidin-4(3H)-one] yielded an IC50 of 5 to 50 µM.
For `O=C(NCc1ccccc1F)N1CCC(O)(Cn2cnc(-c3ccccc3)cc2=O)C2(CCCC2)C1` (stereo not shown) [Example 254, N-(2-Fluorobenzyl)-10-hydroxy-10-((6-oxo-4-phenylpyrimidin-1(6H)-yl)methyl)-7-azaspiro[4.5]decane-7-carboxamide], the IC50 was less than 0.5 µM.
`CC(NC(=O)N1CCC(O)(Cn2cnc(-c3ccccc3)cc2=O)C2(CCCC2)C1)c1ccoc1` (stereo not shown) [Example 255, N-(1-(Furan-3-yl)ethyl)-10-hydroxy-10-((6-oxo-4-phenylpyrimidin-1(6H)-yl)methyl)-7-azaspiro[4.5]decane-7-carboxamide] showed an IC50 of 0.5 to 5 µM.
`CC1(CNC(=O)N2CCC(O)(Cn3cnc(-c4ccccc4)cc3=O)C3(CCCC3)C2)CC1` (stereo not shown) [Example 256, 10-Hydroxy-N-((1-methylcyclopropyl)methyl)-10-((6-oxo-4-phenylpyrimidin-1(6H)-yl)methyl)-7-azaspiro[4.5]decane-7-carboxamide] gave an IC50 of 5 to 50 µM.
For `N#Cc1cccc(CNC(=O)N2CCC(O)(Cn3cnc(-c4ccccc4)cc3=O)C3(CCCC3)C2)c1` (stereo not shown) [Example 257, N-(3-Cyanobenzyl)-10-hydroxy-10-((6-oxo-4-phenylpyrimidin-1(6H)-yl)methyl)-7-azaspiro[4.5]decane-7-carboxamide], the IC50 was 5 to 50 µM.
`N#CCc1ccc(CNC(=O)N2CCC(O)(Cn3cnc(-c4ccccc4)cc3=O)C3(CCCC3)C2)cc1` (stereo not shown) [Example 258, N-(4-(Cyanomethyl)benzyl)-10-hydroxy-10-((6-oxo-4-phenylpyrimidin-1(6H)-yl)methyl)-7-azaspiro[4.5]decane-7-carboxamide] was tested, and the IC50 was 5 to 50 µM.
For `O=C(NCC1=CCCOC1)N1CCC(O)(Cn2cnc(-c3ccccc3)cc2=O)C2(CCCC2)C1` (stereo not shown) [Example 259, N-((5,6-Dihydro-2H-pyran-3-yl)methyl)-10-hydroxy-10-((6-oxo-4-phenylpyrimidin-1(6H)-yl)methyl)-7-azaspiro[4.5]decane-7-carboxamide], the IC50 was 5 to 50 µM.
In the case of `O=C(NCc1ccc2c(c1)COC2)N1CCC(O)(Cn2cnc(-c3ccccc3)cc2=O)C2(CCCC2)C1` (stereo not shown) [Example 260, N-((1,3-Dihydroisobenzofuran-5-yl)methyl)-10-hydroxy-10-((6-oxo-4-phenylpyrimidin-1(6H)-yl)methyl)-7-azaspiro[4.5]decane-7-carboxamide], the IC50 is reported as 5 to 50 µM.
